According to patent US20240148744A1 (Celgene Corporation, priority 2021, published 2024):

System: Onchocerca gutturosa adult male worms
Experiment: Onchocerca gutturosa in vitro screening model: adult worm motility score and MTT/formazan viability
Format: cell-based
Details: read-out: O. gutt Activity class

Compound N#Cc1cccc(S(=O)(=O)Nc2cccc3cccnc23)c1 [Compound 250, 3-cyano-N-(quinolin-8-yl)benzene-sulfonamide] has an IC50 of 500 to 5000 nM.
O=S(=O)(Nc1cccc2cccnc12)c1ncccn1 [Compound 200, N-(quinolin-8-yl)pyrimidine-2-sulfonamide] was tested, and the IC50 was less than 200 nM.
O=S(=O)(Nc1cccc2cccnc12)c1ncccc1O [Compound 219, 3-hydroxy-N-(quinolin-8-yl)pyridine-2-sulfonamide] gave an IC50 of 500 to 5000 nM.
With O=S(=O)(Nc1c(Cl)cc(N2CCOCC2)c2cccnc12)c1ncccc1C1CC1 [Compound 139, N-(7-chloro-5-morpholino-quinolin-8-yl)-3-cyclopropyl-pyridine-2-sulfonamide] the IC50 was less than 200 nM.
In the case of O=S(=O)(Nc1cccc2cccnc12)c1ccncn1 [Compound 199, N-(quinolin-8-yl)pyrimidine-4-sulfonamide], the IC50 is reported as 500 to 5000 nM.
O=S(=O)(Nc1c(Cl)ccc2cccnc12)c1cncc(N2CCCC2)n1 [Compound 74, N-(7-chloro-quinolin-8-yl)-6-(pyrrol-idin-1-yl)pyr-azine-2-sulfonamide] was tested, and the IC50 was 200 to 500 nM.
With O=S(=O)(Nc1cccc2cccnc12)c1ccc(O)cn1 [Compound 218, 5-hydroxy-N-(quinolin-8-yl)pyridine-2-sulfonamide] the IC50 was 500 to 5000 nM.
Compound Cc1ccc(S(=O)(=O)Nc2cccc3cccnc23)cc1 [Compound 284, 4-methyl-N-(quinolin-8-yl)benzene-sulfonamide] has an IC50 of less than 200 nM.
Cc1cccnc1S(=O)(=O)Nc1cccc2c1N(C)CC2 [Compound 44, 3-methyl-N-(1-methyl-indolin-7-yl)-pyridine-2-sulfonamide] was tested, and the IC50 was 500 to 5000 nM.
Work on O=S(=O)(Nc1cccc2cccnc12)c1cccc(-c2ccccc2)n1 [Compound 161, 6-phenyl-N-(quinolin-8-yl)pyridine-2-sulfonamide] yielded an IC50 of 500 to 5000 nM.
Work on Cc1ccc(S(=O)(=O)Nc2cccc3cccnc23)cc1C [Compound 273, 3,4-dimethyl-N-(quinolin-8-yl)benzenesulfon-amide] yielded an IC50 of less than 200 nM.
Cc1ccc(NS(=O)(=O)c2ccco2)c2ncccc12 [Compound 65, N-(5-methyl-quinolin-8-yl)furan-2-sulfonamide] was tested, and the IC50 was 500 to 5000 nM.
O=S(=O)(Nc1c(Cl)ccc2cccnc12)c1ncccc1C1CC1 [Compound 69, N-(7-chloro-quinolin-8-yl)-3-cyclo-propylpyr-idine-2-sulfonamide] gave an IC50 of less than 200 nM.
Work on Cc1nc(S(=O)(=O)Nc2cccc3cccnc23)c(C#N)c(C)c1Cl [Compound 175, 5-chloro-3-cyano-4,6-dimethyl-N-(quinolin-8-yl)pyridine-2-sulfonamide] yielded an IC50 of 200 to 500 nM.
With N#Cc1ccc(S(=O)(=O)Nc2cccc3cccnc23)cc1 [Compound 279, 4-cyano-N-(quinolin-8-yl)benzene-sulfonamide] the IC50 was 200 to 500 nM.
Work on CCn1c(S(=O)(=O)Nc2cccc3cccnc23)nc(C)c1C [Compound 226, 1-ethyl-4,5-dimethyl-N-(quinolin-8-yl)-1H-imidazole-2-sulfonamide] yielded an IC50 of less than 200 nM.
CCn1cccc1S(=O)(=O)Nc1cccc2cccnc12 [Compound 227, 1-ethyl-N-(quinolin-8-yl)-1H-pyrrole-2-sulfonamide] showed an IC50 of less than 200 nM.
Cc1nccnc1S(=O)(=O)Nc1cccc2cccnc12 [Compound 210, 3-methyl-N-(quinolin-8-yl)pyrazine-2-sulfonamide] showed an IC50 of less than 200 nM.
Cc1cccnc1S(=O)(=O)Nc1cccc2c1N(C1CC1)CCC2 [Compound 38, N-(1-cyclo-propyl-1,2,3,4-tetra-hydroquin-olin-8-yl)-3-methylpyr-idine-2-sulfonamide] gave an IC50 of 500 to 5000 nM.
For Cc1ccc(S(=O)(=O)Nc2cccc3cc(C)cnc23)cc1 [Compound 96, 4-methyl-N-(3-methyl-quinolin-8-yl)benzene-sulfonamide], the IC50 was less than 200 nM.
Cn1ccnc1S(=O)(=O)Nc1ccc(F)c2cccnc12 [Compound 133, N-(5-fluoro-quinolin-8-yl)-1-methyl-1H-imidazole-2-sulfonamide] gave an IC50 of less than 200 nM.
Work on O=S(=O)(Nc1ccnc2cccnc12)c1cc(C2CC2)ccn1 [Compound 195] yielded an IC50 of less than 200 nM.
With O=S(=O)(Nc1cccc2cccnc12)c1ncccc1C1CC1 [Compound 214] the IC50 was 200 to 500 nM.
In the case of Cc1cc(C)cc(S(=O)(=O)Nc2cc(F)cc3cccnc23)c1 [Compound 91, N-(6-fluoro-quinolin-8-yl)-3,5-dimethyl-benzene-sulfonamide], the IC50 is reported as less than 200 nM.
Work on O=S(=O)(Nc1cccc2cccnc12)c1cnc(-c2ccccn2)s1 [Compound 170, 2-(pyridin-2-yl)-N-(quinolin-8-yl)thiazole-5-sulfonamide] yielded an IC50 of less than 200 nM.
Compound Cn1ccnc1S(=O)(=O)Nc1cc(F)cc2cccnc12 [Compound 134, N-(6-fluoro-quinolin-8-yl)-1-methyl-1H-imidazole-2-sulfonamide] has an IC50 of less than 200 nM.
With CCn1ccnc1S(=O)(=O)Nc1cccc2cccnc12 [Compound 240, 1-ethyl-N-(quinolin-8-yl)-1H-imidazole-2-sulfonamide] the IC50 was less than 200 nM.
For Cc1ccc(S(=O)(=O)Nc2ccc(N3CCC(O)(c4ccccc4)CC3)c3cccnc23)cc1 [Compound 95, N-(5-(4-hydroxy-4-phenylpiper-idin-1-yl)-quinolin-8-yl)-4-methyl-benzene-sulfonamide], the IC50 was 500 to 5000 nM.
With Cc1ccc(NS(=O)(=O)c2ccccn2)c2ncccc12 [Compound 137, N-(5-methyl-quinolin-8-yl)pyridine-2-sulfonamide] the IC50 was less than 200 nM.
Cc1cccnc1S(=O)(=O)Nc1cncc2cccnc12 [Compound 194, 3-methyl-N-(1,6-naphthyridin-8-yl)pyridine-2-sulfonamide] was tested, and the IC50 was 200 to 500 nM.
O=S(=O)(Nc1cccc2cncnc12)c1ccccn1 [Compound 202, N-(quinazolin-8-yl)pyridine-2-sulfonamide] gave an IC50 of 500 to 5000 nM.
N#Cc1ccccc1S(=O)(=O)Nc1cccc2cccnc12 [Compound 249, 2-cyano-N-(quinolin-8-yl)benzene-sulfonamide] showed an IC50 of 200 to 500 nM.
With Cc1cccnc1S(=O)(=O)Nc1cccc2c1CN(C)CC2 [Compound 43, 3-methyl-N-(2-methyl-1,2,3,4-tetra-hydroisoquin-olin-8-yl)pyr-idine-2-sulfonamide] the IC50 was less than 200 nM.
In the case of O=S(=O)(Nc1cccc2cccnc12)c1ccccc1C(F)(F)F [Compound 274, N-(quinolin-8-yl)-2-(trifluoromethyl) benzene-sulfonamide], the IC50 is reported as less than 200 nM.
For O=S(=O)(Nc1cccc2c1NCCC2)c1ncccc1F [Compound 46, 3-fluoro-N-(1,2,3,4-tetra-hydroquin-olin-8-yl)-pyridine-2-sulfonamide], the IC50 was 500 to 5000 nM.
For O=S(=O)(Nc1cccc2cccnc12)c1ncc[nH]1 [Compound 243, N-(quinolin-8-yl)-1H-imidazole-2-sulfonamide], the IC50 was 500 to 5000 nM.
For O=S(=O)(Nc1cccc2cccnc12)c1ccco1 [Compound 281, N-(quinolin-8-yl)furan-2-sulfonamide], the IC50 was 500 to 5000 nM.
For N#Cc1cccc(S(=O)(=O)Nc2cccc3cccnc23)n1 [Compound 162, 6-cyano-N-(quinolin-8-yl)pyridine-2-sulfonamide], the IC50 was 500 to 5000 nM.
O=S(=O)(Nc1cccc2cccnc12)c1ccc(Cl)cc1 [Compound 285, 4-chloro-N-(quinolin-8-yl)benzene-sulfonamide] was tested, and the IC50 was less than 200 nM.
With Cc1ccc(S(=O)(=O)Nc2cc(F)c(F)c3cccnc23)cc1 [Compound 136, N-(5,6-difluoroquin-olin-8-yl)-4-methylben-zenesulfon-amide] the IC50 was 200 to 500 nM.
With Cc1ccnc(S(=O)(=O)Nc2cccc3cccnc23)c1 [Compound 234, 4-methyl-N-(quinolin-8-yl)pyridine-2-sulfonamide] the IC50 was less than 200 nM.
For CN(C)c1cnc(S(=O)(=O)Nc2c(Cl)ccc3cccnc23)cn1 [Compound 49, N-(7-chloro-quinolin-8-yl)-5-(dimeth-ylamino)pyr-azine-2-sulfonamide], the IC50 was 500 to 5000 nM.
With O=S(=O)(Nc1cccc2cccnc12)c1nccc2ncccc12 [Compound 229, N-(quinolin-8-yl)-1,6-naphthyridine-5-sulfonamide] the IC50 was less than 200 nM.
Compound Cc1ccc(S(=O)(=O)Nc2cc(C)cc3cccnc23)cc1 [Compound 93, 4-methyl-N-(6-methyl-quinolin-8-yl)benzene-sulfonamide] has an IC50 of 200 to 500 nM.
O=S(=O)(Nc1cccc2cccnc12)c1cccnc1 [Compound 277, N-(quinolin-8-yl)pyridine-3-sulfonamide] was tested, and the IC50 was 500 to 5000 nM.
In the case of CC(C)n1nccc1S(=O)(=O)Nc1cccc2c(Cl)ccnc12 [Compound 79, N-(4-chloro-quinolin-8-yl)-1-iso-propyl-1H-pyrazole-5-sulfonamide], the IC50 is reported as less than 200 nM.
O=S(=O)(Nc1cccc2cccnc12)c1cccc(F)c1 [Compound 283, 3-fluoro-N-(quinolin-8-yl)benzene-sulfonamide] showed an IC50 of 200 to 500 nM.
COc1cccc(S(=O)(=O)Nc2cccc3cccnc23)n1 [Compound 224, 6-methoxy-N-(quinolin-8-yl)pyridine-2-sulfonamide] was tested, and the IC50 was 200 to 500 nM.
For O=S(=O)(Nc1cc(F)cc2cccnc12)c1ccccn1 [Compound 135, N-(6-fluoro-quinolin-8-yl)-pyridine-2-sulfonamide], the IC50 was 500 to 5000 nM.
With CN(c1cccc2cccnc12)S(=O)(=O)c1ccccn1 [Compound 256, N-methyl-N-(quinolin-8-yl)pyridine-2-sulfonamide] the IC50 was 500 to 5000 nM.
For COc1ccc(S(=O)(=O)Nc2cccc3cccnc23)nc1 [Compound 235, 5-methoxy-N-(quinolin-8-yl)pyridine-2-sulfonamide], the IC50 was less than 200 nM.
CC(C)n1ccnc1S(=O)(=O)Nc1cccc2c1CN(C1CC1)C2 [Compound 33, N-(2-cyclo-propyliso-indolin-4-yl)-1-isopropyl-1H-imidazole-2-sulfonamide] was tested, and the IC50 was 200 to 500 nM.
O=S(=O)(Nc1cccc2cccnc12)c1ccc2ccccc2n1 [Compound 239, N-(quinolin-8-yl)quinoline-2-sulfonamide] gave an IC50 of less than 200 nM.
For O=S(=O)(Nc1cccc2cccnc12)c1c[nH]c2ncccc12 [Compound 204, N-(quinolin-8-yl)-1H-pyrrolo[2,3-b]pyridine-3-sulfonamide], the IC50 was 500 to 5000 nM.
Work on O=S(=O)(Nc1ccc(N2CCOCC2)c2cccnc12)c1ccco1 [Compound 61, N-(5-morph-olinoquin-olin-8-yl)-furan-2-sulfonamide] yielded an IC50 of 500 to 5000 nM.
